Each block holds one molecule with its values, some of them ahead of it. Where a SMILES comes first, the peptide text is derived from it. [ ]: non-standard residue; d: D form. The star is where a group is joined. ξ: configuration not given here. ξF = NC(Cc1ccccc1)C(=O)O; Cbz = O=C(OCc1ccccc1)*; CH2F = FC*
How the values were obtained:
plasma kallikrein = assay: Inhibition of plasma kallikrein by the method of Example 23; format: biochemical; settings: protease about 10 μM, ketone inhibitor about 0.1 mM
Protocol: (§1) An aqueous solution of elastase (0.3 μM) in 0.1M TES pH 8.2 containing CaCl2 (10 mM) was assayed against the synthetic substrate MeOSuc-Ala-Ala-Pro-Val-MNA. The liberated detecting group (MNA) was quantitated by fluorescence. A standard number of enzyme units were preincubated with each inhibitor at several concentrations for set time periods of 5, 15, 30, and 60 minutes at 37°; then all test samples were individually assayed for activity using the same synthetic substrate and conditions as per control with inhibitors absent. The amount of enzyme activity inhibited by each inhibitor was determined by subtracting the residual activity for each inhibitor against the control activity.
Following the method of Example 23, above, the serine protease plasma kallikrein is inhibited by the ketone inhibitor D-Pro-Phe-ArgCH2 F under the same conditions with a protease concentration of about 10 μM and ketone inhibitor concentration of about 0.1 mM.

glandular kallikrein = assay: Inhibition of glandular kallikrein by the method of Example 23; format: biochemical; settings: protease about 10 μM, ketone inhibitor about 0.1 mM
Protocol: as §1
Following the method of Example 23 above, the serine protease glandular kallikrein is inhibited by the ketone inhibitor D-Val-Leu-ArgCH2 F with a protease concentration of about 10 μM and a ketone inhibitor concentration of about 0.1 mM.

plasminogen activator = assay: Inhibition of plasminogen activator by the method of Example 23; format: biochemical; settings: protease about 50 μM, ketone inhibitor about 0.1 mM
Protocol: as §1
Following the method of Example 23, above, the serine protease plasminogen activator is inhibited by MeOSuc-Gly-Gly-ArgCH2 F under the same conditions with a protease concentration of about 50 μM and a ketone inhibitor concentration of about 0.1 mM.

trypsin = assay: Inhibition of trypsin by the method of Example 23; format: biochemical; settings: protease about 10 μM, ketone inhibitor about 0.1 mM
Protocol: as §1
Following the method of Example 23 above, the serine protease trypsin is inhibited by the ketone inhibitor Z-LysCH2 F with a protease concentration of about 10 μM and a ketone inhibitor concentration of about 0.1 mM.

cathepsin B [1] = molecular target: T1, cathepsin B (Rattus norvegicus, UniProt P00787); assay: Rate of inhibition of cathepsin B in rat tissue homogenates; format: biochemical; settings: inhibitor 0.10 μM, 25°
T1 construct: cathepsin B in rat spleen, pancreas, liver and kidney tissue homogenates; from tissue; host or cells: rat spleen, pancreas, liver and kidney (supernatant of homogenates)
Protocol: (§2) Enzyme activity was assayed using the synthetic oligopeptide substrate Bz-Val-Lys-Arg-AFC with 10 mM DTT and 1 mM of the activator salt EDTA at pH 6.5 by fluorescence detection of the liberated AFC. Units of enzyme activity were standardized per 100 ml of a 50 percent of glycerol-phosphate buffer solution. A standard concentration of enzyme (10 nM) was preincubated with each inhibitor (50 nM) over set time periods of 3, 5, 10, 15, 20 and 30 minutes, 25°; then all test samples were individually assayed for activity using the same synthetic substrate and condition to determine the remaining units of activity of the purified enzyme. The amount of enzyme activity inhibited by each inhibitor was determined by subtracting the residual activity for each inhibitor against the control activity. […] The inhibitor specificity constant (k3 /KI) for Z-Phe-AlaCH2 F is 30 fold higher than for Z-Phe-AlaCHN2.
The rate of inhibition of cathepsin B in rat spleen, pancreas, liver and kidney tissue homogenates was assayed using the inhibitors: Z-Phe-AlaCHN2; Z-Phe-AlaCH2 Cl; and Z-Phe-AlaCH2 F.
The proceding tissues were homogenized, centrifuged at 13,000 rpm for 25 minutes and the supernatant removed. Aliquots of the supernatant were diluted with water to yield a concentration of 0.01 μM. The method of Example 9 was followed. As soon in Table III, the inhibition by the three inhibitors relevant to Cathepsin B were compared for each of the tissue samples. Results are expressed as .tau. (the half-time of inactivation, inhibition). […] The concentration for the inhibitors was 0.10 μM and the incubation temperature was 25°.

[2] = system: porcine pancreatic elastase; assay: Irreversible inhibition of elastase, fluorescence assay with MeOSuc-Ala-Ala-Pro-Val-MNA; format: biochemical; settings: alkaline conditions (0.1M TES pH 8.2, 10 mM CaCl2), 37°
Protocol: as §1

cathepsin B [3] = assay: Irreversible inhibition of purified cathepsin B, fluorescence assay with Bz-Val-Lys-Arg-AFC; format: biochemical, human and rat; settings: for k3 (rate constant of inactivation) / Ki: pH 6.5, 10 mM DTT, 1 mM EDTA, 25°; for Ki: read-out: KI (inhibitor dissociation constant); for k3 /KI (inhibitor specificity constant): pH 6.5, 25°
Protocol: as §2, with “([…])” for “(10 nM) was preincubated with each inhibitor (50 nM)”

cathepsin L = assay: Inhibition of cathepsin L by the method of Example 22; format: biochemical; settings: same conditions and concentrations of protease to ketone inhibitor as Example 22
Protocol: Enzyme activity was assayed using the synthetic oligopeptide substrate Bz-Val-Lys-Arg-AFC with 10 mM DTT and 1 mM of the activator salt EDTA at pH 6.5 by fluorescence detection of the liberated AFC. Units of enzyme activity were standardized per 100 ml of a 50 percent of glycerol-phosphate buffer solution. A standard concentration of enzyme (10 nM) was preincubated with each inhibitor (50 nM) over set time periods of 3, 5, 10, 15, 20 and 30 minutes, 25°; then all test samples were individually assayed for activity using the same synthetic substrate and condition to determine the remaining units of activity of the purified enzyme. The amount of enzyme activity inhibited by each inhibitor was determined by subtracting the residual activity for each inhibitor against the control activity.

T1 sequence (P00787 80-339): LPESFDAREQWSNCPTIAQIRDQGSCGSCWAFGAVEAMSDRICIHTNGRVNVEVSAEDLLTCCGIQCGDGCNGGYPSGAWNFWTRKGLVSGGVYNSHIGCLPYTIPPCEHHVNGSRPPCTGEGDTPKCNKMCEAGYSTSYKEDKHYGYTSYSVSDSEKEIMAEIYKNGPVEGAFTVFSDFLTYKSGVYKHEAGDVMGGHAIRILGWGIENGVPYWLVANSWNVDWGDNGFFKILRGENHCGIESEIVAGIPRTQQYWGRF

Structure (SMILES): N=C(N)NCCC[C@H](NC(=O)[C@H](Cc1ccccc1)NC(=O)[C@H]1CCCN1)C(=O)CF [D-Pro-Phe-ArgCH2 F] (HELM PEPTIDE1{[dP].F.R.[FC[*:1]]}$$$$V2.0)
inhibition of plasma kallikrein (in words) (plasma kallikrein): inhibited

Structure (SMILES): CC(C)C[C@H](NC(=O)[C@H](N)C(C)C)C(=O)N[C@@H](CCCNC(=N)N)C(=O)CF [D-Val-Leu-ArgCH2 F] (HELM PEPTIDE1{[dV].L.R.[FC[*:1]]}$$$$V2.0)
inhibition of glandular kallikrein (in words) (glandular kallikrein): inhibited

Structure (SMILES): COC(=O)CCC(=O)NCC(=O)NCC(=O)NC(CCCNC(=N)N)C(=O)CF (stereo not drawn) [MeOSuc-Gly-Gly-ArgCH2 F]
inhibition of plasminogen activator (in words) (plasminogen activator): inhibited

Structure (SMILES): NCCCCC(NC(=O)OCc1ccccc1)C(=O)CF (stereo not drawn) [Z-LysCH2 F]
inhibition of trypsin (in words) (trypsin): inhibited

.tau. Half-Time (half-time of inactivation) (cathepsin B [1]; rat KIDNEY homogenate): 76.6 min
.tau. Half-Time (half-time of inactivation) (cathepsin B [1]; rat LIVER homogenate): 66.5 min
.tau. Half-Time (half-time of inactivation) (cathepsin B [1]; rat PANCREAS homogenate): 21.4 min
.tau. Half-Time (half-time of inactivation) (cathepsin B [1]; rat SPLEEN homogenate): 74.2 min
Structure (SMILES): C[C@H](NC(=O)[C@H](Cc1ccccc1)NC(=O)OCc1ccccc1)C(=O)CCl [Z-Phe-AlaCH2 Cl]

inhibition of porcine pancreatic elastase (in words) [2]: inhibits
k3 /KI fold higher than for Z-Phe-AlaCHN2 (cathepsin B [3]; purified cathepsin B): 30 fold
Ki (cathepsin B [3]; purified cathepsin B): 0.57 ± 0.09 µM
k3 /KI (inhibitor specificity constant) (cathepsin B [3]; purified cathepsin B): 16,200 M^-1 s^-1
.tau. Half-Time (half-time of inactivation) (cathepsin B [1]; rat KIDNEY homogenate): 7.9 min
.tau. Half-Time (half-time of inactivation) (cathepsin B [1]; rat LIVER homogenate): 8.5 min
.tau. Half-Time (half-time of inactivation) (cathepsin B [1]; rat PANCREAS homogenate): 12.4 min
.tau. Half-Time (half-time of inactivation) (cathepsin B [1]; rat SPLEEN homogenate): 14.2 min
Structure (SMILES): CC(NC(=O)[C@H](Cc1ccccc1)NC(=O)OCc1ccccc1)C(=O)CF (stereo partly drawn) [Z-Phe-AlaCH2 F, 3-(N-Benzyloxycarbonylphenylalanylamido)-1-fluoro-2-butanone]
inhibition of purified cathepsin B (in words) (cathepsin B [3]; 0.1 μM inhibitor): effective inhibitor
k3 (rate constant of inactivation) (cathepsin B [3]; purified cathepsin B): 9.2±1.3×10^-3 s^-1
inhibition of cathepsin L (in words) (cathepsin L): inhibited

Ki (cathepsin B [3]; purified cathepsin B): 7.4 ± 3 µM
k3 /KI (inhibitor specificity constant) (cathepsin B [3]; purified cathepsin B): 546 M⁻¹ s⁻¹
.tau. Half-Time (half-time of inactivation) (cathepsin B [1]; rat KIDNEY homogenate): 20.1 min
.tau. Half-Time (half-time of inactivation) (cathepsin B [1]; rat LIVER homogenate): 22.4 min
.tau. Half-Time (half-time of inactivation) (cathepsin B [1]; rat PANCREAS homogenate): 15.8 min
.tau. Half-Time (half-time of inactivation) (cathepsin B [1]; rat SPLEEN homogenate): 26.4 min
Structure (SMILES): C[C@H](NC(=O)[C@H](Cc1ccccc1)NC(=O)OCc1ccccc1)C(=O)C=[N+]=[N-] [Z-Phe-AlaCHN2]
k3 (rate constant of inactivation) (cathepsin B [3]; purified cathepsin B): 4.1±1.7×10^-3 s^-1

Structure (SMILES): O=C(N[C@@H](Cc1ccccc1)C(=O)NC(Cc1ccccc1)C(=O)CF)OCc1ccccc1 (stereo partly drawn) [Z-Phe-PheCH2 F] (Cbz-Phe-[ξF]-CH2F)
inhibition of cathepsin L (in words) (cathepsin L): inhibited

Reference: patent publication US4518528A, “α Amino fluoro ketones” (priority 1984, dated 1985)
